# Results as given in ChEMBL document CHEMBL1129447 (J Med Chem, 1996).
# Legend:
# Adenosine receptor A2a [1] = target: T1, Adenosine receptor A2a (Rattus norvegicus, UniProt P30543)
# Description: Displacement of [3H]-CGS- 51680 from Adenosine A2A receptor of rat striatum.
# Adenosine receptor A1 [2] = target: T2, Adenosine receptor A1 (Rattus norvegicus, UniProt P25099)
# T2 sequence (P25099 whole entry): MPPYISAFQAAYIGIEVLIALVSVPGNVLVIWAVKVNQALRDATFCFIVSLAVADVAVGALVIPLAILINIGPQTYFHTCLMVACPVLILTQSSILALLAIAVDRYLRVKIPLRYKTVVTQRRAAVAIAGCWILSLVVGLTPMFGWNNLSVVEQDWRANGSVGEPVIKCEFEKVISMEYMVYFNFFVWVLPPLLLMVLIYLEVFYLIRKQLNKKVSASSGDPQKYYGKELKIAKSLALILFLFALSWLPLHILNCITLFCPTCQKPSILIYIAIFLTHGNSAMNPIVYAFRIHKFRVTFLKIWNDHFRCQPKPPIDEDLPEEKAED
# Description: Displacement of [3H]CHA from Adenosine A1 receptor of rat brain
# Adenosine receptor A1 [3] = target: T2, Adenosine receptor A1; experiment: Adenosine A1 receptor mediated negative chronotropic activity in spontaneously beating rat atria; assay type: functional
# Adenosine receptor A2a [4] = target: T1, Adenosine receptor A2a; remark: listed apart in the source
# Description: Vasorelaxation as Adenosine A2A receptor activity in rat aorta
# T1 sequence (P30543 whole entry): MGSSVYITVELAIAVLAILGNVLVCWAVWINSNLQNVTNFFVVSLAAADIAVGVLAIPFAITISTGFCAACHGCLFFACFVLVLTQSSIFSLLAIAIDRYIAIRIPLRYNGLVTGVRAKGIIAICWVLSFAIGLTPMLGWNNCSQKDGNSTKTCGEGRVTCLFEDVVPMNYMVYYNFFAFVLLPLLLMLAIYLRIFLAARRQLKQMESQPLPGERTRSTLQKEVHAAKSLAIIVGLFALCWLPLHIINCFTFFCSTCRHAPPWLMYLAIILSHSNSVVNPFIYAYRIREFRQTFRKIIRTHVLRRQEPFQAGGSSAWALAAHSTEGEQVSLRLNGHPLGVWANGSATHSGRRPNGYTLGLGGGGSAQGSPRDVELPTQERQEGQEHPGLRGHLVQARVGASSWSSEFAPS
Structure (SMILES),Ki (Adenosine receptor A2a [1]) [nM],Ki (Adenosine receptor A1 [2]) [nM],EC50 (Adenosine receptor A1 [3]) [nM],EC50 (Adenosine receptor A2a [4]) [nM]
CCCCC#Cc1nc(N)c2ncn([C@@H]3O[C@H](C(=O)NCC)[C@@H](O)[C@H]3O)c2n1,–,–,> 1,–
CCCCCCc1nc(N)c2ncn([C@@H]3O[C@H](C(=O)NCC)[C@@H](O)[C@H]3O)c2n1,136,> 1,> 1,1
CCCC/C=C\c1nc(N)c2ncn([C@@H]3O[C@H](CO)[C@@H](O)[C@H]3O)c2n1,757,618,> 1,–
CCCCCCc1nc(N)c2ncn(C3O[C@H](CO)[C@@H](O)[C@H]3O)c2n1 (stereo partly drawn),> 1,> 1,> 1,–
CCNC(=O)[C@H]1O[C@@H](n2cnc3c(N)nc(C#Cc4ccccc4)nc32)[C@H](O)[C@@H]1O,–,–,> 1,> 1
CCCC/C=C/c1nc(N)c2ncn([C@@H]3O[C@H](CO)[C@@H](O)[C@H]3O)c2n1,14,332,–,–
CCCCC#Cc1nc(N)c2ncn([C@@H]3O[C@H](CO)[C@@H](O)[C@H]3O)c2n1,–,98,> 1,–

# Continued, values first:
Ki (Adenosine receptor A2a [1]) [nM],Ki (Adenosine receptor A1 [2]) [nM],EC50 (Adenosine receptor A1 [3]) [nM],EC50 (Adenosine receptor A2a [4]) [nM],Structure (SMILES)
70,951,> 1,676,CCCC/C=C\c1nc(N)c2ncn(C3O[C@H](C(=O)NCC)[C@@H](O)[C@H]3O)c2n1 (stereo partly drawn)
3.5,1020,> 1,576,CCNC(=O)[C@H]1O[C@@H](n2cnc3c(N)nc(/C=C/CCCc4ccccc4)nc32)[C@H](O)[C@@H]1O
–,–,> 1,–,CCNC(=O)[C@H]1O[C@@H](n2cnc3c(N)nc(C#CCCCc4ccccc4)nc32)[C@H](O)[C@@H]1O
1.6,251,> 1,594,CCCC/C=C/c1nc(N)c2ncn([C@@H]3O[C@H](C(=O)NCC)[C@@H](O)[C@H]3O)c2n1
234,117,420,194,CCNC(=O)[C@H]1O[C@@H](n2cnc3c(N)nc(/C=C/c4ccccc4)nc32)[C@H](O)[C@@H]1O
51,> 1,> 1,> 1,CCNC(=O)[C@H]1O[C@@H](n2cnc3c(N)nc(/C=C\CCCc4ccccc4)nc32)[C@H](O)[C@@H]1O
